Assay results from the Kinase Knowledgebase extract (Sharma et al. 2016).

Columns and labels:
PIK3CG (human) [1] = target: PIK3CG (human) (UniProt P48736); assay: Cell-Based Assay; settings: u937
PIK3CD (Human) = PIK3CD (Human) (UniProt O00329); assay: Enzyme Assay
PIK3CB (Human) = PIK3CB (Human) (UniProt P42338); assay: Enzyme Assay
PIK3CA (human) = PIK3CA (human) (UniProt P42336); assay: Enzyme Assay
PIK3CG (human) [2] = target: PIK3CG (human) (UniProt P48736); assay: Enzyme Assay

Sequence of PIK3CB (Human) (P42338 whole entry, looked up): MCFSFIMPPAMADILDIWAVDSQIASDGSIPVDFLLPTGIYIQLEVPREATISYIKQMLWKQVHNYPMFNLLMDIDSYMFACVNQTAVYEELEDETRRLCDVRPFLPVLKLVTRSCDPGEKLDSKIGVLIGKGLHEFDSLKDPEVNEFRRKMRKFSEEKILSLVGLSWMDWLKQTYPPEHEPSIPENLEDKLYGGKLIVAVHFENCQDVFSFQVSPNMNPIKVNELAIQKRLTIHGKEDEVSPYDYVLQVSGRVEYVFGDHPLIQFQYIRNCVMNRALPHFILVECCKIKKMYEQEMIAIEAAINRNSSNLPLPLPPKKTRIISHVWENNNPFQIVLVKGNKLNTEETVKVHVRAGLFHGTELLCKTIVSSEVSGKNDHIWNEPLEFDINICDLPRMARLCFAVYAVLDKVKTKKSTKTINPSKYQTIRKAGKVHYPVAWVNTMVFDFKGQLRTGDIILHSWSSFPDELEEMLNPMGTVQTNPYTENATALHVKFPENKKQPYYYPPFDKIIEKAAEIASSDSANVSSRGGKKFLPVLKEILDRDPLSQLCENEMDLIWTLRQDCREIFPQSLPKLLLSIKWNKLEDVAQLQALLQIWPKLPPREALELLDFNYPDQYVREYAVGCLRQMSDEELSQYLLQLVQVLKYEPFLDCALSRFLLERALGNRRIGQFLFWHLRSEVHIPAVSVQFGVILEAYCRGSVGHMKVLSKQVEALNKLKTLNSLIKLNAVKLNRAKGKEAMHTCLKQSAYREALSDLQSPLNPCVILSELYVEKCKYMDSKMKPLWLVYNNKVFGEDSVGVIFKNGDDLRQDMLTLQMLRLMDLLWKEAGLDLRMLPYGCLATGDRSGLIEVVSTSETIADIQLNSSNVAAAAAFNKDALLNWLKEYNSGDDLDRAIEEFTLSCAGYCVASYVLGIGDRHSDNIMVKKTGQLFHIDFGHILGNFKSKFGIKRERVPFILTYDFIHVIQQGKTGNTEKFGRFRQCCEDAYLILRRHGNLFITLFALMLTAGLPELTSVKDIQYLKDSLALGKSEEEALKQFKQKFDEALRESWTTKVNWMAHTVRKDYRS
Sequence of PIK3CD (Human) (O00329 whole entry, looked up): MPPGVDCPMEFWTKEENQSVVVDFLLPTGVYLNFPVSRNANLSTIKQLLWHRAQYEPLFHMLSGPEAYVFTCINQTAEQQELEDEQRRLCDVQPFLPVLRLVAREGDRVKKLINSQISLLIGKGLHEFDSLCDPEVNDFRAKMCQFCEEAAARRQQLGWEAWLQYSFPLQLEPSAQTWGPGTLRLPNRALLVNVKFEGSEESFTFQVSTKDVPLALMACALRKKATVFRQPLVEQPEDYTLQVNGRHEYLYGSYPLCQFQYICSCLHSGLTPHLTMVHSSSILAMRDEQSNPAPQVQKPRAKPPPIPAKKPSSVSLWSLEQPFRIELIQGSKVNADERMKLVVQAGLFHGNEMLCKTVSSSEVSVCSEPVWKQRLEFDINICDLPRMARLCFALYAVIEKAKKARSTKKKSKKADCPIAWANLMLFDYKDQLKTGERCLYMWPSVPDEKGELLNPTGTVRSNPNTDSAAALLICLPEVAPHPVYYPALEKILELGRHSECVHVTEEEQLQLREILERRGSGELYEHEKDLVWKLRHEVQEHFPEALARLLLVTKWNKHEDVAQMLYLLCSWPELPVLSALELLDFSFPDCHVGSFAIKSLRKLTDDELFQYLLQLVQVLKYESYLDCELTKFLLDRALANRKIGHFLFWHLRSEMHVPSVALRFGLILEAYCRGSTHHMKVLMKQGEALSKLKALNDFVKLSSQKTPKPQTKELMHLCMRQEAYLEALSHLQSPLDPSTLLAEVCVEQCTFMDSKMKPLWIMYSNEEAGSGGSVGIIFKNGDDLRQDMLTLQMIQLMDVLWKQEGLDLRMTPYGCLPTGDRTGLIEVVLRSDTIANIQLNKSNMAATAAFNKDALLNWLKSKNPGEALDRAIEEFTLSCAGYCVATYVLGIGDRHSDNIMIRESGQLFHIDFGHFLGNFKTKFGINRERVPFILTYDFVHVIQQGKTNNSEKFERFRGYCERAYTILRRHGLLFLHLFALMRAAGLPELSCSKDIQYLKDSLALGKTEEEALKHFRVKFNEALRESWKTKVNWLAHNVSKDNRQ
Sequence of PIK3CG (human) (P48736 whole entry, looked up): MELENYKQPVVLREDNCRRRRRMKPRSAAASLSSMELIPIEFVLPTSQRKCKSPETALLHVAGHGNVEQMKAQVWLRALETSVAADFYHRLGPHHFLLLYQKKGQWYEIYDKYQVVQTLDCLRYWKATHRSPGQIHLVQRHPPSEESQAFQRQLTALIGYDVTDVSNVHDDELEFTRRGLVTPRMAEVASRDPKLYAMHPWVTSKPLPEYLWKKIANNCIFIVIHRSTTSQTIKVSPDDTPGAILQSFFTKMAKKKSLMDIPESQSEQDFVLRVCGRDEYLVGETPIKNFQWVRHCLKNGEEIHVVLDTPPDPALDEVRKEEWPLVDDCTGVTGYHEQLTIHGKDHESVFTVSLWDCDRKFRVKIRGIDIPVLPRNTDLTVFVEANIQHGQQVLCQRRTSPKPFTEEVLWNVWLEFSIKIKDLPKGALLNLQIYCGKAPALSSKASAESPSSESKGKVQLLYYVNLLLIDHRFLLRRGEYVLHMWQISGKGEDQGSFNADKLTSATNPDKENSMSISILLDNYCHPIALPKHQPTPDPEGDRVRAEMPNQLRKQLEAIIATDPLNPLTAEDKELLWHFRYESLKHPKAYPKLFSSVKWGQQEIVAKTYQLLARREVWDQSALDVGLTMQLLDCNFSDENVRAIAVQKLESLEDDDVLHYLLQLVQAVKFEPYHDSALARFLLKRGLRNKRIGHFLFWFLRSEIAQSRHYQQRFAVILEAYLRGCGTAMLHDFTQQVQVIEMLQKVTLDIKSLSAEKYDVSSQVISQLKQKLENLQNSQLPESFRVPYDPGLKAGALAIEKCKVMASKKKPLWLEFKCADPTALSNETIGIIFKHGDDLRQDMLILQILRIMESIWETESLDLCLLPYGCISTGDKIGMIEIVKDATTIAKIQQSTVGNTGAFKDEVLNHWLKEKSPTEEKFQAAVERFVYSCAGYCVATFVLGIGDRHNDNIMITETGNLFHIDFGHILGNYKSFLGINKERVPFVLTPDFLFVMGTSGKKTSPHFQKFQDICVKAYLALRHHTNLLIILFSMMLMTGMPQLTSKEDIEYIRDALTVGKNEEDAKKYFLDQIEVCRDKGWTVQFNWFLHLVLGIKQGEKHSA
Sequence of PIK3CA (human) (P42336 whole entry, looked up): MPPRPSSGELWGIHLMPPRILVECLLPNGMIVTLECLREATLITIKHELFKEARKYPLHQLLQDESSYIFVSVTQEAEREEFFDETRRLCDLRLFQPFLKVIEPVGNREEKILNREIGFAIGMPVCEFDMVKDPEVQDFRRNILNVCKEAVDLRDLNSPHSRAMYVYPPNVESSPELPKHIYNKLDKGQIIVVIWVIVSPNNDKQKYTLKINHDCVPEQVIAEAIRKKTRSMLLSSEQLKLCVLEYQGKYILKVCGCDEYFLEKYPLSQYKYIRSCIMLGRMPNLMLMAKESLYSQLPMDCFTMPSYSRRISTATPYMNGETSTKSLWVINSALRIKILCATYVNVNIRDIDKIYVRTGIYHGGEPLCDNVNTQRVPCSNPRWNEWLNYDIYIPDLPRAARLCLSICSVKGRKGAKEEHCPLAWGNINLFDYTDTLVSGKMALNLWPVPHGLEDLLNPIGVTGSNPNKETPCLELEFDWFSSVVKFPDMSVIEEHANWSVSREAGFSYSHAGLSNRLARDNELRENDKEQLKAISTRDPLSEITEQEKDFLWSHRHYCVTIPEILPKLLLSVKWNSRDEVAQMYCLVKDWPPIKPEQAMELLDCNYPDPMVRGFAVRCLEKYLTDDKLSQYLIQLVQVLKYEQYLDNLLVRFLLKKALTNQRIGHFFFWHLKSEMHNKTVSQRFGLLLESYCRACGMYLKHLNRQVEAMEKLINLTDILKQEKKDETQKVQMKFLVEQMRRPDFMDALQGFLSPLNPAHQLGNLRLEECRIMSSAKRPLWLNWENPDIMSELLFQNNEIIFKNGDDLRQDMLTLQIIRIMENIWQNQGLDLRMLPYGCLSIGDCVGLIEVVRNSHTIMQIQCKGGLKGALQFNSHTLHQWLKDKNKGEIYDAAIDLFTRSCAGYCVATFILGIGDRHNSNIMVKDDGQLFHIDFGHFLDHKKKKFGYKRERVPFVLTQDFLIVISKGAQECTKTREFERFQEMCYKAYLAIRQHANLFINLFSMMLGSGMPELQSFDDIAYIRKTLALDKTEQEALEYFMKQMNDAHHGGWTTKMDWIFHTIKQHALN

| IC50 (PIK3CG (human) [1]) [µM] | IC50 (PIK3CD (Human)) [µM] | IC50 (PIK3CB (Human)) [µM] | IC50 (PIK3CA (human)) [µM] | IC50 (PIK3CG (human) [2]) [µM] | Structure (SMILES) |
| --- | --- | --- | --- | --- | --- |
| 0.122 | 0.01 | > 9.1 | 0.16 | 0.006 | Cc1ccc(S(=O)(=O)N[C@H]2CC[C@H](O)CC2)cc1-c1cncc(-c2csc(CN3CCOCC3)c2)n1 |
| 0.061 | 0.1 | 0.63 | 0.09 | 0.011 | Cc1ccc(S(=O)(=O)NC[C@H]2C[C@@H](O)C2)cc1-c1cncc(-c2cn(C)nc2C)n1 |
| 0.122 | 0.04 | 1.9 | 0.1 | 0.038 | Cc1cc(-c2cncc(-c3cc(S(=O)(=O)NC[C@H]4C[C@@H](O)C4)ccc3C)n2)n(C)n1 |
| 0.022 | 0.09 | 0.45 | 0.04 | 0.013 | Cc1ccc(S(=O)(=O)NC2CC3(CC(O)C3)C2)cc1-c1cncc(-c2cn(C)nc2C)n1 (stereo not given) |
